Data taken from publication PMC7139549, “TLD1433 Photosensitizer Inhibits Conjunctival Melanoma Cells in Zebrafish Ectopic and Orthotopic Tumour Models” (Cancers, 2020).
Where two headings read alike, the source gives them in different places.

Key:
[1] = system: CRMM1 conjunctival melanoma cell line; experiment: SRB cell viability assay, CRMM1; assay type: cell-based, Human
Protocol: TLD1433 is known to generate reactive oxygen species (ROS) with high quantum efficacy in many cancer cell lines. However, there is no report of the in vitro toxicity of this compound in eye melanoma (UM) cell lines. We determined the cell viability of three conjunctival melanoma cell lines (CRMM1, CRMM2 and CM2005.1), and three uveal melanoma cell lines (OMM1, OMM2.5, MEL270) in the presence of TLD1433, both in the dark or under green light irradiation (21 mW/cm^2, 19 J/cm^2, 520 nm, 15 min), and compared this viability to epidermoid carcinoma A431 and cutaneous melanoma A375 cell lines under the same conditions. The protocol used was based on previous work from the Bonnet group, and differed slightly from recommendations from McFarland et al.. […] The effective concentration (EC50) values, i.e., the concentration required to reduce cell viability by 50% compared to untreated wells, were assessed by fitting the dose-response curves with a Hill equation. The phototoxicity index (PI), defined as the ratio of the dark EC50 to the light EC50, was also calculated and represents the amplification of TLD1433 activity with a light trigger. […]
Figure 2 Cell viability after TLD1433 treatment of eight tumour cell lines (CRMM1, CRMM2, CM2005.1, OMM1, OMM2.5, MEL270, A431, A375). […] The absorbance of Sulforhodamine B in solution was measured at 520 nm. […]
At day 0, cells were detached using 1mL of trypsin, resuspended in 4 mL of media and transferred to a 15 mL corning falcon tube. Cells were counted using trypan blue and BioRad® TC20™ automated cell counter (Figure 11). Dilutions of 6000 (CRMM1), 6000 (CRMM2), 8000 (CM2005.1), 6000 (OMM1), 6000 (OMM2.5), 6000 (MEL270) 8000 (A431), and 4000 (A375) cells/well were calculated from each cell suspension at a final volume of 6 mL using the following formula: Vc=(Vt×10C)/Lc where Vt = total volume of solution, C = number of cells per well/per 100 μL and Lc = live cells count (cells/mL). […] Next day, the dye was dissolved using Tri-base (0.25%) and absorbance of SRB at 510 nm was recorded from each well using a Tecan plate reader. […]

eye melanoma cells = experiment: SRB cell viability assay, eye melanoma cells; assay type: cell-based, Human
Protocol: TLD1433 is known to generate reactive oxygen species (ROS) with high quantum efficacy in many cancer cell lines. However, there is no report of the in vitro toxicity of this compound in eye melanoma (UM) cell lines. We determined the cell viability of three conjunctival melanoma cell lines (CRMM1, CRMM2 and CM2005.1), and three uveal melanoma cell lines (OMM1, OMM2.5, MEL270) in the presence of TLD1433, both in the dark or under green light irradiation (21 mW/cm^2, 19 J/cm^2, 520 nm, 15 min), and compared this viability to epidermoid carcinoma A431 and cutaneous melanoma A375 cell lines under the same conditions. […] The phototoxicity index (PI), defined as the ratio of the dark EC50 to the light EC50, was also calculated and represents the amplification of TLD1433 activity with a light trigger. […]
At day 0, cells were detached using 1mL of trypsin, resuspended in 4 mL of media and transferred to a 15 mL corning falcon tube. Cells were counted using trypan blue and BioRad® TC20™ automated cell counter (Figure 11). Dilutions of 6000 (CRMM1), 6000 (CRMM2), 8000 (CM2005.1), 6000 (OMM1), 6000 (OMM2.5), 6000 (MEL270) 8000 (A431), and 4000 (A375) cells/well were calculated from each cell suspension at a final volume of 6 mL using the following formula: Vc=(Vt×10C)/Lc where Vt = total volume of solution, C = number of cells per well/per 100 μL and Lc = live cells count (cells/mL). […]

Cc1ccnc(-c2cc(C)ccn2)c1.Cc1ccnc(-c2cc(C)ccn2)c1.[Cl-].[Cl-].[Ru+2].c1csc(-c2ccc(-c3ccc(-c4nc5c6cccnc6c6ncccc6c5[nH]4)s3)s2)c1 [TLD1433]
EC50 ([1]; CRMM1, dark, 24 h treatment, SRB, read-out: EC50, dark): 840 nM
EC50 ([1]; CRMM1, green light 520 nm, 15 min, 21 mW/cm^2, 19 J.cm^−2, DLI 24 h, read-out: EC50,light): 5.9 nM
PI (photo index) ([1]; CRMM1, ratio of dark and light EC50, 19 J.cm^−2 green light): 140
EC50 (eye melanoma cells; dark, read-out: EC50 (dark toxicity)): ~1000 nM
EC50 upon light activation (in words) (eye melanoma cells; green light 19 J/cm^2): in the nanomolar regime
